Assay results as given in ChEMBL document CHEMBL5042512 (Eur J Med Chem, 2022).
Active and inactive are the calls of the source.

Tests used:
[1] = tested on: KYSE-450; assay: Antiproliferative activity against human KYSE-450 cells assessed as cell growth inhibition measured after 48 hrs by CCK8 assay; assay type: functional, cell-based; conditions: KYSE-450, 48 h
[2] = tested on: KYSE-30; assay: Induction of mitochondrial membrane potential loss in human KYSE-30 cells assessed as downregulation of Bcl-2 protein at 80 to 100 nM measured after 48 hrs by western blot analysis; assay type: functional, cell-based; conditions: dose 80-100 nM
[3] = tested on: KYSE-450; assay: Induction of apoptosis in human KYSE-450 cells assessed as apoptotic cells at 80 nM measured after 48 hrs by annexin-V-FITC and PI staining based flow cytometry analysis (reference value: 8.1667 %); assay type: functional
[4] = tested on: KYSE-30; assay: Antiproliferative activity against human KYSE-30 cells assessed as inhibition of colony formation at 40 to 60 nM for 7 days by crystal violet staining based analysis; assay type: functional, cell-based; conditions: dose 40-60 nM, time 7.0 day
[5] = tested on: MGC-803; assay: Antiproliferative activity against human MGC-803 cells assessed as cell growth inhibition measured after 48 hrs by CCK8 assay; assay type: functional, cell-based; conditions: MGC-803, 48 h
[6] = tested on: KYSE-450; assay: Induction of apoptosis in human KYSE-450 cells assessed as PARP cleavage at 80 to 100 nM measured after 48 hrs by western blot analysis; assay type: functional, cell-based; conditions: dose 80-100 nM
[7] = tested on: KYSE-450; assay: Induction of mitochondrial membrane potential loss in human KYSE-450 cells assessed as upregulation of NOXA protein at 80 to 100 nM measured after 48 hrs by western blot analysis; assay type: functional, cell-based; conditions: dose 80-100 nM
[8] = tested on: KYSE-30; assay: Induction of mitochondrial membrane potential loss in human KYSE-30 cells assessed as upregulation of NOXA protein at 80 to 100 nM measured after 48 hrs by western blot analysis; assay type: functional, cell-based; conditions: dose 80-100 nM
[9] = biological target: T1, Tubulin (Homo sapiens) (UniProt P68371+Q9H4B7+P0DPH7+P68366+Q13509+Q71U36+P04350+Q3ZCM7+P07437+P68363+Q9BQE3+Q6PEY2+Q13885+Q9BVA1+Q9BUF5); assay: Inhibition of tubulin polymerization in human KYSE-30 cells assessed as microtubule assembly at 0.1 uM measured after 48 hrs by immunofluorescence assay; assay type: cell-based
[10] = tested on: KYSE-450; assay: Induction of apoptosis in human KYSE-450 cells assessed as caspase-3 cleavage at 80 to 100 nM measured after 48 hrs by western blot analysis; assay type: functional, cell-based; conditions: dose 80-100 nM
[11] = tested on: KYSE-450; assay: Induction of cell cycle arrest in human KYSE-450 cells assessed as accumulation at G2/M phase at 100 nM measured after 48 hrs by flow cytometry analysis (reference value: 7.04333 %); assay type: functional
[12] = tested on: KYSE-450; assay: Induction of mitochondrial membrane potential loss in human KYSE-450 cells assessed as Bak expression at 80 to 100 nM measured after 48 hrs by western blot analysis; assay type: functional, cell-based; conditions: dose 80-100 nM
[13] = tested on: KYSE-30; assay: Induction of apoptosis in human KYSE-30 cells assessed as PARP cleavage at 80 to 100 nM measured after 48 hrs by western blot analysis; assay type: functional, cell-based; conditions: dose 80-100 nM
[14] = tested on: KYSE-30; assay: Down regulation of p-wee1 protein expression in human KYSE-30 cells at 80 to 100 nM for 48 hrs by western blot analysis; assay type: functional, cell-based; conditions: dose 80-100 nM
[15] = tested on: KYSE-450; assay: Induction of mitochondrial membrane potential loss in human KYSE-450 cells assessed as Mcl-1 expression at 80 to 100 nM measured after 48 hrs by western blot analysis; assay type: functional, cell-based; conditions: dose 80-100 nM
[16] = tested on: KYSE-30; assay: Induction of mitochondrial membrane potential loss in human KYSE-30 cells assessed as mitochondrial depolarization at 80 to 100 nM measured after 48 hrs by JCI staining based flow cytometry; assay type: functional, cell-based; conditions: dose 80-100 nM
[17] = tested on: KYSE-30; assay: Induction of cell cycle arrest in human KYSE-30 cells assessed as accumulation at G2/M phase at 100 nM measured after 48 hrs by flow cytometry analysis (reference value: 19.38 %); assay type: functional
[18] = tested on: KYSE-30; assay: Induction of apoptosis in human KYSE-30 cells assessed as caspase-3 cleavage at 80 to 100 nM measured after 48 hrs by western blot analysis; assay type: functional, cell-based; conditions: dose 80-100 nM
[19] = tested on: KYSE-30; assay: Down regulation of CDC25C protein expression in human KYSE-30 cells at 80 to 100 nM for 48 hrs by western blot analysis; assay type: functional, cell-based; conditions: dose 80-100 nM
[20] = tested on: KYSE-450; assay: Antiproliferative activity against human KYSE-450 cells assessed as cell viability measured after 48 hrs by CCK8 assay; assay type: functional, cell-based; conditions: KYSE-450, 48 h
[21] = tested on: KYSE-450; assay: Antiproliferative activity against human KYSE-450 cells assessed as cell viability measured up to 48 hrs by CCK8 assay; assay type: functional, cell-based; conditions: time hrs <=48, TDE = time-dependent effect
[22] = tested on: KYSE-450; assay: Induction of mitochondrial membrane potential loss in human KYSE-450 cells assessed as upregulation of Bax protein at 80 to 100 nM measured after 48 hrs by western blot analysis; assay type: functional, cell-based; conditions: dose 80-100 nM
[23] = biological target: T1, Tubulin (Homo sapiens); assay: Inhibition of tubulin polymerization in human KYSE-450 cells assessed as microtubule assembly at 0.1 uM measured after 48 hrs by immunofluorescence assay; assay type: cell-based
[24] = tested on: KYSE-30; assay: Antiproliferative activity against human KYSE-30 cells assessed as cell viability measured after 48 hrs by CCK8 assay; assay type: functional, cell-based; conditions: KYSE-30, 48 h
[25] = tested on: KYSE-30; assay: Induction of mitochondrial membrane potential loss in human KYSE-30 cells assessed as Bcl-xL expression at 80 to 100 nM measured after 48 hrs by western blot analysis; assay type: functional, cell-based; conditions: dose 80-100 nM
[26] = tested on: KYSE-450; assay: Induction of mitochondrial membrane potential loss in human KYSE-450 cells assessed as mitochondrial depolarization at 80 to 100 nM measured after 48 hrs by JCI staining based flow cytometry; assay type: functional, cell-based; conditions: dose 80-100 nM
[27] = tested on: KYSE-450; assay: Up regulation of p-Histone H3 protein expression in human KYSE-450 cells at 80 to 100 nM for 48 hrs by western blot analysis; assay type: functional, cell-based; conditions: dose 80-100 nM
[28] = tested on: KYSE-450; assay: Down regulation of p-wee1 protein expression in human KYSE-450 cells at 80 to 100 nM for 48 hrs by western blot analysis; assay type: functional, cell-based; conditions: dose 80-100 nM
[29] = tested on: HCT-116; assay: Antiproliferative activity against human HCT-116 cells assessed as cell growth inhibition measured after 48 hrs by CCK8 assay; assay type: functional, cell-based; conditions: HCT-116, 48 h
[30] = tested on: KYSE-30; assay: Antiproliferative activity against human KYSE-30 cells assessed as cell viability measured up to 48 hrs by CCK8 assay; assay type: functional, cell-based; conditions: time hrs <=48, TDE = time-dependent effect
[31] = tested on: KYSE-30; assay: Up regulation of p-Histone H3 protein expression in human KYSE-30 cells at 80 to 100 nM for 48 hrs by western blot analysis; assay type: functional, cell-based; conditions: dose 80-100 nM
[32] = tested on: KYSE-450; assay: Induction of mitochondrial membrane potential loss in human KYSE-450 cells assessed as Bcl-xL expression at 80 to 100 nM measured after 48 hrs by western blot analysis; assay type: functional, cell-based; conditions: dose 80-100 nM
[33] = tested on: KYSE-450; assay: Induction of apoptosis in human KYSE-450 cells assessed as apoptotic cells at 100 nM measured after 48 hrs by annexin-V-FITC and PI staining based flow cytometry analysis (reference value: 8.1667 %); assay type: functional
[34] = tested on: KYSE-450; assay: Antiproliferative activity against human KYSE-450 cells assessed as inhibition of colony formation at 40 to 60 nM for 7 days by crystal violet staining based analysis; assay type: functional, cell-based; conditions: dose 40-60 nM, time 7.0 day
[35] = tested on: KYSE-450; assay: Induction of mitochondrial membrane potential loss in human KYSE-450 cells assessed as decrease in XIAP level at 80 to 100 nM measured after 48 hrs by western blot analysis; assay type: functional, cell-based; conditions: dose 80-100 nM
[36] = tested on: KYSE-30; assay: Induction of apoptosis in human KYSE-30 cells assessed as apoptotic cells at 100 nM measured after 48 hrs by annexin-V-FITC and PI staining based flow cytometry analysis (reference value: 8.1667 %); assay type: functional

COc1ccc(CN(C(=O)CSC(=S)N2CCN(C(=O)OC(C)(C)C)CC2)c2cc(OC)c(OC)c(OC)c2)cc1O
76.9767%: Activity [17]
57.3667%: Activity [33]
inactive: Activity [12] | Activity [15] | Activity [25] | Activity [32]
82 nM: IC50 [5]
34.0333%: Activity [3]
active: Activity [2] Dose-Dependent Effect | inhibition [4] | Activity [6] | Activity [7] Dose-Dependent Effect | Activity [8] Dose-Dependent Effect | inhibition [9] | Activity [10] | Activity [13] | Activity [14] Dose-Dependent Effect | Activity [16] | Activity [18] | Activity [19] Dose-Dependent Effect | inhibition [21] Tde | Activity [22] Dose-Dependent Effect | inhibition [23] | Activity [26] | Activity [27] Dose-Dependent Effect | Activity [28] Dose-Dependent Effect | inhibition [30] Tde | Activity [31] Dose-Dependent Effect | inhibition [34] | Activity [35] Dose-Dependent Effect
128 nM: IC50 [29]
80.8933%: Activity [11]
69 nM: IC50 [24]
76 nM: IC50 [1] | IC50 [20]
38.633%: Activity [36]
